This note sets out measurements from patent publication US8338472B2, “Hexahydrocyclopentyl[F]indazole carboxamides and derivatives thereof as selective glucocorticoid receptor modulators” (Merck Sharp & Dohme Corp., priority 2008, dated 2012).

Assay [1] has as its target T1, Glucocorticoid Receptor (Homo sapiens, UniProt P04150).
T1 construct: These cells express large amount of the GR and are very responsive to GC treatment; endogenous in cells; host or cells: A549 cells transiently transfected with the MMTV-LUC reporter
T1 sequence (P04150 1-777): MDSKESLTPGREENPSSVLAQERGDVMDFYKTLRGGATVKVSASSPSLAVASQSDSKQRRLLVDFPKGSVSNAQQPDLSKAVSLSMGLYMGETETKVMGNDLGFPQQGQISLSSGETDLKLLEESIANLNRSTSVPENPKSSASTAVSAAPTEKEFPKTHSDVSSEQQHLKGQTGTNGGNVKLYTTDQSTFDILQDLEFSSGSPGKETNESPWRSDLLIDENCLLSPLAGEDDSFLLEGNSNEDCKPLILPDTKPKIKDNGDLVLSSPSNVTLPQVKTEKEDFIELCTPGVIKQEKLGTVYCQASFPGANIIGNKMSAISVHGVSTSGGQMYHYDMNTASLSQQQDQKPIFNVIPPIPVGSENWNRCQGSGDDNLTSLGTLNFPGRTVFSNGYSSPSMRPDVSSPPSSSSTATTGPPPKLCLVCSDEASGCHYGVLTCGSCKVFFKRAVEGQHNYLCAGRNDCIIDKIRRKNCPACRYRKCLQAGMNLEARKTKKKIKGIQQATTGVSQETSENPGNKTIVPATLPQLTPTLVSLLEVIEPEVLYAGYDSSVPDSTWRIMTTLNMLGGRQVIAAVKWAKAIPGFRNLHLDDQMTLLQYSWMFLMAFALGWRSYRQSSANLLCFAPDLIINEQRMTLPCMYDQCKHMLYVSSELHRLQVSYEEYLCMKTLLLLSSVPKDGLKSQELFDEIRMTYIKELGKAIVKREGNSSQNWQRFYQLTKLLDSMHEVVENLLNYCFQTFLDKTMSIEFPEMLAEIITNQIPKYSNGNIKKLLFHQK
Nature of the assay: Trans-Activation Modulation of Glucocorticoid Receptor (GRAMMER), MMTV-LUC reporter gene in A549 cells. The note with it: Table 1; for Emax: A549, A549 cells, Emax relative to 300 nM dexamethasone, read-out: Transactivation A549 Cells GRAMMER Emax; for EC50: inflection point, A549 cells, read-out: Transactivation A549 Cells GRAMMER IP. Type of assay: cell-based. The source says: Trans-Activation Modulation of Glucocorticoid Receptor (GRAMMER)
This assay assesses the ability of test compounds to control transcription from the MMTV-LUC reporter gene in lung adenocarcinoma A549 cells or MDA-MB-453 cells, a human breast cancer cell line that naturally expresses the human GR. The assay measures induction of a modified MMTV LTR/promoter linked to the LUC reporter gene.
The routine transient assay consists of plating 7,000-25,000 cells/well of a white, clear-bottom 96-well plate. Alternatively, 384-well plates can be used at a cell concentration of 10,000/well. The media that the cells are plated in is “exponential growth medium” which consists of phenol red-free RPMI1640 containing 10% FBS, 4 mM L-glutamine, 20 mM HEPES, 10 ug/mL human insulin, and 20 ug/mL gentamicin. Incubator conditions are 37° C. and 5% CO2. The transfection is done in batch mode. The cells are trypsinized and counted to the right cell number in the proper amount of fresh media. It is then gently mixed with the FuGene6/DNA mix and plated onto the 96 or 384-well plate, all the wells receive 100 uL or 40 uL, respectively, of medium+lipid/DNA complex then incubated 37° C. overnight. The transfection cocktail consists of serum-free OptiMEM, FuGene6 reagent and DNA. The manufacturer's (Roche Biochemical) protocol for cocktail setup is as follows: The lipid to DNA ratio is approximately 2.5:1 and the incubation time is 20 min at room temperature. Sixteen to 24 hours after transfection, the cells are treated with dexamethasone to a final concentration of 10 nM as well as the compound of interest, such that final DMSO (vehicle) concentration is equal to or less than 1%. Each plate also contains samples that are treated with 10 nM dexamethasone alone, which is used as the 100% activity control. The cells are exposed to the compounds for 24 hours. After 24 hours, the cells are lysed by a Promega cell culture lysis buffer for approximately 30 min and then the luciferase activity in the extracts is assayed in the 96-well format luminometer. In 384-well format, Steady-Glo (Promega) or Steady-Lite (PerkinElmer) can be used by adding an equal volume of reagent to the media present in each well. Activity induced by 10 nM dexamethasone alone is set at 100% activity. Antagonist activity is calculated by determining the decrease in dexamethasone-induced activity in response to compound treatment relative to samples that were treated with dexamethasone alone. […] This transactivation assay can be performed in an agonist and antagonist mode to identify these different activities.
Activity of test compounds is calculated as the Emax relative to the activity obtained with 300 nM dexamethasone. Activity of test compounds is calculated as the Emax relative to the activity obtained with 300 nM DEX. […] The action of compounds is also tested in an antagonist mode (Anti-GRAMMER) in which the cells are treated with medium containing an agonist such as 10 nM DEX and the ability to agents to inhibit the activation by an agonist is measured.

Assay [2] addresses T2, human GR (Homo sapiens, UniProt P04150).
T2 construct: U937 cells contain an endogenous glucocorticoid receptor (GR); endogenous in cells; host or cells: U937 cells stably transfected with the TNF-alpha promoter/beta-lactamase reporter
T2 sequence (P04150 1-777): T1 sequence (P04150 1-777)
Nature of the assay: Transrepression Assay (GITAR), TNFα-β-lactamase reporter gene in U937 cells. As to conditions: for GITAR Greater than by GRAMMER % SEP: GITAR Emax minus GRAMMER Emax; for EC50: inflection point, U937 cells, read-out: Transrepression U937 Cells GITAR IP. Type of assay: cell-based. From the text: Transrepression Assay (GITAR)
This assay assesses the ability of test compounds to control transcription from the TNFα-β-lactamase reporter gene in U937 cells, a human myelomonocytic leukemia cell line that naturally expresses the human GR. The assay measures compound dependent-repression of the TNFa promoter linked to a reporter gene.
The human U937 cells that had been stablely transfected with the TNF-α promoter driving β-lactamase are used for this assay. U937 cells contain an endogenous glucocorticoid receptor (GR). Cells are maintained in RPMI 1640 Growth medium (Gibco Cat#11875-093) containing 25 mM HEPES, 10% FBS, 2 mM L-Glutamine, 1 mM Sodium pyruvate, 25 μg/ml Gentamicin (Gibco Cat#15710-064), 1:1000 2-Mercaptoethanol (Gibco Cat#21985-023) and 0.8 mg/ml G418 (Gibco Cat#10131-027). The density of the cells in the flask needs to be about 1×10^6−3×10^6/ml at the time of harvest. Usually, the cells are split to 1.2˜1.4×10^5/ml (1:10) 3 days prior to the assay. 50,000 cells/well are plated in 96 well black-walled plates the day of assay. Test compounds are added 10 pt/well, and cells are incubated at 37° C. for 30-45 min. For assaying compounds, first dilute 1:10 in DMSO to make 1 mM, then further dilute 1:100 in medium to make 10× stock prior to adding to the cells. Add 50 ng/ml PMA (Sigma, cat# P8139) 10 μL/well to a final concentration 5 ng/ml, and 1 μg/ml LPS (Sigma, cat# L4130) 10 μL/well to a final concentration 100 ng/ml. Incubate cells at 37° C. overnight for ˜18 hr. PMA is stored frozen as 100 μg/ml stock in DMSO. Dilute 1:10 in DMSO for a working stock of 10 μg/ml and store at −20C. For assaying, dilute the […] working stock 1:200 in medium to make a 10× solution (50 ng/ml). Store frozen LPS at 1 mg/ml in PBS, dilute 1:1000 in medium to make 10× (1 μg/ml) for the assay. Add 6× loading buffer (CCF2−AM) 20 μL/well, and incubate at room temperature for 70-90 min. […] The activity repressed by 100 nM dexamethasone alone is set as 100% activity.
For orientation: A reporter such as luciferase makes a cellular process visible.

Assay [3] addresses T3, glucocorticoid receptor (GR) (Homo sapiens, UniProt P04150).
T3 sequence (P04150 1-777): T1 sequence (P04150 1-777)
Nature of the assay: Ligand binding assay (GR BIND), 3H-dexamethasone displacement in MDA-MB-453 cell lysate. The note with it: GR BIND Ki, Table 1.

Where [4] appears, read: U-937, U937 cells, activity repressed by 100 nM dexamethasone = 100%, Table 1, read-out: Transrepression U937 Cells GITAR Emax.
Setting [5] is: U-937, text statement, 100 nM dexamethasone = 100%, read-out: maximal activity in the transrepression assay (GITAR).

Where two headings read alike, the source gives them in different places. Bounds are passed on as bounds.

As a reminder, the Ki is a dissociation constant, usually derived from enzyme kinetics or from competition with a known ligand. A lower Ki goes with a stronger hold on the target.

Regarding `C[C@]12Cc3cnn(-c4ccc(F)cc4)c3C=C1CC[C@@H]2C(=O)N1CCCC(=O)CC1` [Compound 15, 1-{[(4αR,5S)-1-(4-fluorophenyl)-4α-methyl-1,4,4α,5,6,7-hexahydrocyclopenta[f]indazol-5-yl]carbonyl}azepan-4-one], the Emax in assay [1] was 5.3%; in assay [2] (setting [4]), 12.5%; in assay [2] (setting [5]), above 5%. The EC50 in assay [1] was found to be 1540 nM; in assay [2] (Table 1) it was 3410 nM. The “GITAR Greater than by GRAMMER % SEP” value in assay [2] (Table 1) is recorded as 7.2%. For the same molecule, in assay [3], the affinity, expressed as Ki, was 120 nM.

With `CCCN(C(=O)[C@H]1CCC2=Cc3c(cnn3-c3ccc(F)cc3)C[C@@]21C)C(C)CC` (stereo partly drawn) [Compound 16, (4αR,5S)-N-(sec-butyl)-1-(4-fluorophenyl)-4α-methyl-N-propyl-1,4,4α,5,6,7-hexahydrocyclopenta[f]indazole-5-carboxamide], the Emax was 33.8% in assay [1], 61.8% in assay [2] (setting [4]) and above 5% in assay [2] (setting [5]). Further, the EC50 was found to be 184 nM in assay [1] and 376 nM in assay [2] (Table 1). The “GITAR Greater than by GRAMMER % SEP” value in assay [2] (Table 1) amounted to 28.1%. The molecule also came in with a Ki in assay [3] of 2.8 nM.

For the molecule `CC1CN(C(=O)[C@H]2CCC3=Cc4c(cnn4-c4ccc(F)cc4)C[C@@]32C)CC(C)O1` (stereo partly drawn) [Compound 17, (4αR,5S)-5-[(2,6-dimethylmorpholin-4-yl)carbonyl]-1-(4-fluorophenyl)-4α-methyl-1,4,4α,5,6,7-hexahydrocyclopenta[f]indazole], the Emax in assay [1] is 9.4%; in assay [2] (setting [4]), 11.8%; in assay [2] (setting [5]) it was above 5%. Moreover, the results for the EC50 in assay [1] and in assay [2] (Table 1) were 526 nM and 1830 nM, respectively. Further, in assay [2] (Table 1), the “GITAR Greater than by GRAMMER % SEP” value was 2.3%. The inhibitory constant (Ki) in assay [3] was 43.6 nM.

Turning to `C[C@]12Cc3cnn(-c4ccc(F)cc4)c3C=C1CC[C@@H]2C(=O)N1CCCC1CCc1ccccc1` (stereo partly drawn) [Compound 19, (4αR,5S)-1-(4-fluorophenyl)-4α-methyl-5-{[2-(2-phenylethyl)pyrrolidin-1-yl]carbonyl}-1,4,4α,5,6,7-hexahydrocyclopenta[f]indazole], the Emax is 4% in assay [1], 10.2% in assay [2] (setting [4]) and above 5% in assay [2] (setting [5]). Also, the figures for the EC50 in assay [1] and in assay [2] (Table 1) were 1690 nM and 4260 nM, respectively. Moreover, the “GITAR Greater than by GRAMMER % SEP” value in assay [2] (Table 1) was determined as 6.2%. This molecule came in with a Ki in assay [3] of 4.5 nM.

For the molecule `C[C@]12Cc3cnn(-c4ccc(F)cc4)c3C=C1CC[C@@H]2C(=O)N1CCCC(CCc2ccccc2)C1` (stereo partly drawn) [Compound 20, (4αR,5S)-1-(4-fluorophenyl)-4α-methyl-5-{[3-(2-phenylethyl)piperidin-1-yl]carbonyl}-1,4,4α,5,6,7-hexahydrocyclopenta[f]indazole], the Emax was 3.6% in assay [1], 11% in assay [2] (setting [4]) and above 5% in assay [2] (setting [5]). For the same molecule, the EC50 in assay [1] stood at 1.3 nM; in assay [2] (Table 1), 693 nM. Also, in assay [2] (Table 1), the “GITAR Greater than by GRAMMER % SEP” value was found to be 7.4%. Also, in assay [3], the Ki amounted to 3.1 nM.

Turning to `C[C@]12Cc3cnn(-c4ccc(F)cc4)c3C=C1CC[C@@H]2C(=O)N1CCCC(Cc2cccc(C(F)(F)F)c2)C1` (stereo partly drawn) [Compound 21, (4αR,5S)-1-(4-fluorophenyl)-4α-methyl-5-({3-[3-(trifluoromethyl)benzyl]piperidin-1-yl}carbonyl)-1,4,4α,5,6,7-hexahydrocyclopenta[f]indazole], the Emax in assay [1] was 26.2%; in assay [2] (setting [4]), 28.1%; in assay [2] (setting [5]), above 5%. Moreover, the EC50 in assay [1] amounted to 569 nM; in assay [2] (Table 1), 742 nM. Further, the “GITAR Greater than by GRAMMER % SEP” value in assay [2] (Table 1) is listed as 1.9%. Further, the affinity in assay [3], expressed as Ki, was 2.3 nM.

As to `C[C@]12Cc3cnn(-c4ccc(F)cc4)c3C=C1CC[C@@H]2C(=O)N1CCCCC1Cc1ccccc1` (stereo partly drawn) [Compound 22, (4αR,5S)-5-[(2-benzylpiperidin-1-yl)carbonyl]-1-(4-fluorophenyl)-4α-methyl-1,4,4α,5,6,7-hexahydrocyclopenta[f]indazole], the figures for the Emax in assay [1], in assay [2] (setting [4]) and in assay [2] (setting [5]) were 5.5%, 17.3% and above 5%, respectively. The EC50 was determined as 386 nM in assay [1] and 1970 nM in assay [2] (Table 1). The “GITAR Greater than by GRAMMER % SEP” value in assay [2] (Table 1) was 11.7%. The affinity in assay [3], expressed as Ki, was 4.8 nM.
